The values that follow come from US7816522B2, “Triazolone derivatives” (Eisai Co., Ltd., priority 2006, dated 2010).

This assay has as its target T1, human clotting factor VIIa (Homo sapiens, UniProt P08709).
T1 construct: a human clotting factor VIIa (hereinafter, “Factor VIIa”) purified sample; purchased Enzyme Research Laboratories HFVIIa
Kind of assay: Inhibitory activity against clotting factor VIIa (chromogenic substrate Spectrozyme FVIIa, TF/Factor VIIa enzyme solution). To be noted: human Factor VIIa 5 nmol/L with human TF 10 nmol/L, room temperature 40 minutes, 405 nm. It counts as biochemical. Put shortly:
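Human Factor VIIa (5 nmol/L) with human TF (10 nmol/L) in Tris-BSA buffer pH 7.4 containing 15 mmol/L CaCl2 and cephalin, with Spectrozyme FVIIa substrate. Reaction 40 min at room temperature; 4-nitroanilide read at 405 nm. IC50 by non-linear regression over 100 μmol/L–0.1 nmol/L.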

T1 sequence (P08709 213-466 limits assumed): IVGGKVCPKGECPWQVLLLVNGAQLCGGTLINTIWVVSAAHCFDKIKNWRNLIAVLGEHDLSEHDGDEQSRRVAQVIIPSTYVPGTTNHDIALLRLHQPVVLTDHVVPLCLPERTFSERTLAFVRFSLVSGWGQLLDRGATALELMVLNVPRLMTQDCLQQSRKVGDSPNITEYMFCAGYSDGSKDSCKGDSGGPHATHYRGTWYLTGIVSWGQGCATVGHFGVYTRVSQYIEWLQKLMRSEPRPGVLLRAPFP
T1 sequence (P08709 61-212 limits assumed): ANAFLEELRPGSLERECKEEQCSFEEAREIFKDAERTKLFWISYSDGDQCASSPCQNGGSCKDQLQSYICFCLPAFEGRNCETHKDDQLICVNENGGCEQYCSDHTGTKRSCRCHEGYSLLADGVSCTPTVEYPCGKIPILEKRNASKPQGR
T1 sequence (P13726 33-295 partner): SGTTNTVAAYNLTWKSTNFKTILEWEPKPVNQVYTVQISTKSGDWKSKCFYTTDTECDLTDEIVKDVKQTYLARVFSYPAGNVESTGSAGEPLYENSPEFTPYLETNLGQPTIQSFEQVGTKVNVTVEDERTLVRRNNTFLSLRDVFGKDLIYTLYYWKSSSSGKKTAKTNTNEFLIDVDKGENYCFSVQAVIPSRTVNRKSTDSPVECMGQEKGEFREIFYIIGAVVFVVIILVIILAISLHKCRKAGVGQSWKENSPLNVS

The IC50 is the midpoint of a concentration-inhibition curve. The molecule `COc1cc(C(Nc2ccc(C(=N)N)cc2)c2nn(-c3cccnn3)c(=O)[nH]2)cc(CC#N)c1F` (racemic) [Example 146, (R) and (S)-4-{[(3-cyanomethyl-4-fluoro-5-methoxyphenyl)-(5-oxo-1-pyridazin-3-yl-4,5-dihydro-1H-[1,2,4]triazol-3-yl)methyl]amino}benzamidine acetate] came in with a half-inhibitory concentration (IC50) of 8.1 nM. `COc1cc(OCC#N)c(F)c(C(Nc2ccc(C(=N)N)cc2)c2nn(-c3cccnn3)c(=O)[nH]2)c1` (racemic) [Example 148, (R) and (S)-{[(3-cyanomethoxy-2-fluoro-5-methoxyphenyl)-(5-oxo-1-pyridazin-3-yl-4,5-dihydro-1H-[1,2,4]triazol-3-yl)methyl]amino}benzamidine acetate]: the IC50 stood at 8.7 nM. This IC50 and that of the molecule before are within 1.5-fold of each other.

Molecule `COc1ccc(C(Nc2ccc(C(=N)N)cc2)c2nn(-c3cccnn3)c(=O)[nH]2)cc1OC` (racemic) [Example 149, (R) and (S)-4-{[(3,4-dimethoxyphenyl)-(5-oxo-1-pyridazin-3-yl-4,5-dihydro-1H-[1,2,4]triazol-3-yl)methyl]amino}benzamidine acetate] yielded an IC50 of 9.2 nM. This IC50 and that of the molecule before are within 1.5-fold of each other. For `COc1cc(C(Nc2ccc(C(=N)N)cc2)c2nn(-c3cccnn3)c(=O)[nH]2)cc2c1OCOC2` (racemic) [Example 150, (R) and (S)-4-{[(8-methoxy-4H-benzo[1,3]dioxin-6-yl)-(5-oxo-1-pyridazin-3-yl-4,5-dihydro-1H[1,2,4]triazol-3-yl)methyl]amino}benzamidine acetate] the value was 9 nM; for `COc1cc(OCCF)c(F)c(C(Nc2ccc(C(=N)N)cc2)c2nn(-c3cccnn3)c(=O)[nH]2)c1` (racemic) [Example 151, (R) and (S)-4-{[(2-fluoro-3-(2-fluoroethoxy)-5-methoxyphenyl)-(5-oxo-1-pyridazin-3-yl-4,5-dihydro-1H-[1,2,4]triazol-3-yl)methyl]amino}benzamidine acetate], 5.4 nM; for `COC(=O)c1sccc1-n1nc(C(Nc2ccc(C(=N)N)cc2)c2cc3c(c(OC)c2)OCOC3)[nH]c1=O` (racemic) [Example 152, (R) and (S)-3-{3-[(4-carbamimidoylphenylamino)-(8-methoxy-4H-benzo[1,3]dioxin-6-yl)methyl]-5-oxo-4,5-dihydro[1,2,4]triazol-1-yl}thiophene-2-carboxylic acid methyl ester acetate], 1.2 nM.

Regarding `COc1cc(OCCO)c(F)c(C(Nc2ccc(C(=N)N)cc2)c2nn(-c3ncccn3)c(=O)[nH]2)c1` (racemic) [Example 153, 4-({[2-fluoro-3-(2-hydroxyethoxy)-5-methoxyphenyl]-(5-oxo-1-pyrimidin-2-yl-4,5-dihydro-1H-[1,2,4]triazol-3-yl)methyl}amino)benzamidine], the IC50 was found to be 4.8 nM. Against the preceding molecule, the IC50 is about 4-fold higher. For `COc1cc(OC)c(F)c(C(Nc2ccc(C(=N)N)cc2)c2nn(-c3ncc[nH]c3=O)c(=O)[nH]2)c1` (racemic) [Example 154, (R) and (S)-4-({(2-fluoro-3,5-dimethoxyphenyl)-[5-oxo-1-(3-oxo-3,4-dihydropyrazin-2-yl)]-4,5-dihydro-1H-[1,2,4]triazol-3-yl]methyl}amino)benzamidine acetate] the value was 21 nM; for `COc1ccc(C(Nc2ccc(C(=N)N)cc2)c2nn(-c3ccsc3C(=O)O)c(=O)[nH]2)cc1OC` (racemic) [Example 155, (R) and (S)-3-{3-[(4-carbamimidoylphenylamino)-(3,4-dimethoxyphenyl)methyl]-5-oxo-4,5-dihydro[1,2,4]triazol-1-yl}thiophene-2-carboxylic acid acetate], 2.3 nM. Molecule `COc1cc(C(Nc2ccc(C(=N)N)cc2)c2nn(-c3ncccn3)c(=O)[nH]2)cc2c1OCCCO2` (racemic) [Example 156, (R) and (S)-4-{[(9-methoxy-3,4-dihydro-2H-benzo[b][1,4]dioxepin-7-yl)-(5-oxo-1-pyrimidin-2-yl-4,5-dihydro-1H-[1,2,4]triazol-3-yl)methyl]amino}benzamidine acetate] showed a half-inhibitory concentration (IC50) of 5.2 nM. Next, `COc1cc(OCCCO)cc(C(Nc2ccc(C(=N)N)cc2)c2nn(-c3ncccn3)c(=O)[nH]2)c1` (racemic) [Example 158, 4-({[3-(3-hydroxypropoxy)-5-methoxyphenyl]-(5-oxo-1-pyrimidin-2-yl-4,5-dihydro-1H-[1,2,4]triazol-3-yl)methyl}amino)benzamidine]: 5.1 nM; `COc1cc(C(Nc2ccc(C(=N)N)cc2)c2nn(-c3ncccn3)c(=O)[nH]2)cc(OCCO)c1OC` (racemic) [Example 159, 4-({(R) and (S)-[3-(2-hydroxyethoxy)-4,5-dimethoxyphenyl]-(5-oxo-1-pyrimidin-2-yl-4,5-dihydro-1H-[1,2,4]triazol-3-yl)methyl}amino)benzamidine acetate]: 11.7 nM. For `CCOc1cc(C(Nc2ccc(C(=N)N)cc2)c2nn(-c3ncccn3)c(=O)[nH]2)cnc1OC` (racemic) [Example 160, 4-{[(R) and (S)-(5-ethoxy-6-methoxypyridin-3-yl)-(5-oxo-1-pyrimidin-2-yl-4,5-dihydro-1H-[1,2,4]triazol-3-yl)methyl]amino}benzamidine acetate] the value was 9.4 nM; for `COc1cc(C(Nc2ccc(C(=N)N)cc2)c2nn(-c3ncccn3)c(=O)[nH]2)c(F)c2c1OCC2` (racemic) [Example 161, (R) and (S)-4-{[(4-fluoro-7-methoxy-2,3-dihydrobenzofuran-5-yl)-(5-oxo-1-pyrimidin-2-yl-4,5-dihydro-1H-[1,2,4]triazol-3-yl)methyl]-amino}benzamidine acetate], 9 nM. Next, `COc1cc(F)c(C(Nc2ccc(C(=N)N)cc2)c2nn(-c3ncsc3C(=O)O)c(=O)[nH]2)cc1OC` (racemic) [Example 162, (R) and (S)-4-{3-[(4-carbamimidoylphenylamino)-(2-fluoro-4,5-dimethoxyphenyl)methyl]-5-oxo-4,5-dihydro[1,2,4]triazol-1-yl}thiazole-5-carboxylic acid]: 16.5 nM; `COc1cc(OCCCO)c(F)c(C(Nc2ccc(C(=N)N)cc2)c2nn(-c3ncsc3C(=O)O)c(=O)[nH]2)c1` (racemic) [Example 163, (R) and (S)-4-(3-{(4-carbamimidoylphenylamino)-[2-fluoro-3-(3-hydroxypropoxy)-5-methoxyphenyl]methyl}-5-oxo-4,5-dihydro-[1,2,4]triazol-1-yl)thiazole-5-carboxylic acid]: 10.5 nM; `COc1cc(C(Nc2ccc(C(=N)N)cc2)c2nn(-c3ncsc3C(N)=O)c(=O)[nH]2)c(F)c2c1OCOC2` (racemic) [Example 164, (R) and (S)-4-{3-[(4-carbamimidoylphenylamino)-(5-fluoro-8-methoxy-4H-benzo[1,3]dioxin-6-yl)methyl]-5-oxo-4,5-dihydro-[1,2,4]triazol-1-yl}thiazole-5-carboxylic acid amide]: 24.5 nM. Turning to `COc1cc(C(Nc2ccc(C(=N)N)cc2)c2nn(-c3ncsc3C(=O)O)c(=O)[nH]2)c(F)c2c1OCOC2` (racemic) [Example 165, (R) and (S)-4-{3-[(4-carbamimidoylphenylamino)-(5-fluoro-8-methoxy-4H-benzo[1,3]dioxin-6-yl)methyl]-5-oxo-4,5-dihydro-[1,2,4]triazol-1-yl}thiazole-5-carboxylic acid], the half-maximal inhibitory concentration (IC50) is 25.8 nM. This IC50 and that of the molecule before are within 1.5-fold of each other. Next, `COc1cc(C(Nc2ccc(C(=N)N)cc2)c2nn(-c3ncsc3C(=O)O)c(=O)[nH]2)cc2c1OCOC2` (racemic) [Example 166, (R) and (S)-4-{3-[(4-carbamimidoylphenylamino)-(8-methoxy-4H-benzo[1,3]dioxin-6-yl)methyl]-5-oxo-4,5-dihydro-[1,2,4]triazol-1-yl}thiazole-5-carboxylic acid]: 18.7 nM; `COc1cc(OCCO)c(F)c(C(Nc2ccc(C(=N)N)cc2)c2nn(-c3ncsc3C(=O)O)c(=O)[nH]2)c1` (racemic) [Example 167, (R) and (S)-4-(3-{(4-carbamimidoylphenylamino)-[2-fluoro-3-(2-hydroxyethoxy)-5-methoxyphenyl]methyl}-5-oxo-4,5-dihydro[1,2,4]triazol-1-yl)thiazole-5-carboxylic acid]: 11.1 nM. Next, `COc1cc(C(Nc2ccc(C(=N)N)cc2)c2nn(-c3ccsc3C(=O)O)c(=O)[nH]2)c(F)c2c1OCCO2` (racemic) [Example 168, (R) and (S)-3-{3-[(4-carbamimidoylphenylamino)-(5-fluoro-8-methoxy-2,3-dihydrobenzo[1,4]dioxin-6-yl)methyl]-5-oxo-4,5-dihydro-[1,2,4]triazol-1-yl}thiophene-2-carboxylic acid]: 2.8 nM.

For the molecule `COc1cc(C(Nc2ccc(C(=N)N)cc2)c2nn(-c3ccsc3C(=O)O)c(=O)[nH]2)cnc1OC` (racemic) [Example 169, 3-{3-[(R) and (S)-(4-carbamimidoylphenylamino)-(5,6-dimethoxypyridin-3-yl)methyl]-5-oxo-4,5-dihydro-[1,2,4]triazol-1-yl}thiophene-2-carboxylic acid acetate], the IC50 is 2.8 nM.

`COc1cnc(C(Nc2ccc(C(=N)N)cc2)c2nn(-c3ccsc3C(=O)O)c(=O)[nH]2)cc1OC` (racemic) [Example 170, 3-{3-[(R) and (S)-(4-carbamimidoylphenylamino)-(4,5-dimethoxypyridin-2-yl)methyl]-5-oxo-4,5-dihydro-[1,2,4]triazol-1-yl}thiophene-2-carboxylic acid] had a half-inhibitory concentration (IC50) of 8 nM. Compared with the last molecule, the IC50 is about 2.9-fold higher. `COc1cc(F)c(C(Nc2ccc(C(=N)N)cc2)c2nn(-c3ccsc3C(=O)O)c(=O)[nH]2)cc1OC` (racemic) [Example 171, (R) and (S)-3-{3-[(4-carbamimidoylphenylamino)-(2-fluoro-4,5-dimethoxyphenyl)methyl]-5-oxo-4,5-dihydro[1,2,4]triazol-1-yl}thiophene-2-carboxylic acid] had a 50% inhibitory concentration (IC50) of 3.3 nM.
